Data on 1 molecule can be found in patent US20210315839A1, “USE OF SPERMIDINE FOR THE ENHANCEMENT OF MITOCHONDRIAL RESPIRATION” (TLL THE LONGEVITY LABS GMBH, priority 2016, published 2021).

This assay relates to mitochondrial Complex I. The assay is described as follows: High resolution respirometry of cardiac mitochondria isolated from spermidine supplemented aged mice (Complex I activity). The format is in vivo, C57BL/6 mice. The settings on record: for activity of mitochondrial Complex I (respiratory competence of cardiac mitochondria through respiratory chain complex I, OXPHOS stage): isolated cardiac mitochondria of 24 month old mice after 6 months of spermidine supplementation (24M+S) vs aged control (24M), complex I supplying substrates, 37° C., N-5/5. How it is done:
Mitochondria isolated from cardyomyocytes of spermidine or sham treated 24 month old and 4 month old (young reference) C57B/63 wildtype mice were used for measurement of mitochondrial respiratory activity.
Wild type C57BL/6 mice were purchased from Janvier Labs, France (C57BL6/J:Rj males). Supplementation of spermidine was conducted late in life (starting at age of 18 months). After 6 months of treatment, isolation of cardiac mitochondria and high resolution respirometry was performed, using an isolation buffer containing 0.2% BSA and 5 mg/ml bacterial protease (Sigma-Aldrich, P8038). Hearts were quickly excised immediately after final blood collection under isoflurane anaesthesia and processed.
Optical density at 600 nm (0D600) of the final mitochondrial suspension (isolation buffer including BSA, but excluding protease) was determined by serial dilutions in a TECAN GeniusPro plate reader and served as an estimate of mitochondrial mass used for normalization. Oxygen consumption was assayed at 37° C. with an Oxygraph 2 k high resolution respirometer (Oroboros Instruments, Austria) according to the manufacturer's recommendations. OD600 equivalents of isolated myocardial mitochondria corresponding to 10-20 ug mitochondrial protein were diluted in 2 ml equilibrated measurement medium (100 mM sucrose, 20 mM K+−TES (pH=7.2), 50 mM KCl, 2 mM MgCl2, 1 mM EDTA, 4 mM KH2PO4, 3 mM malate and 0.1% (v/v) BSA) within a closed and calibrated system with constant stirring. […]
In FIG. 1A representative oxygraph recordings and (B) quantification of mitochondrial respiration (only OXPHOS stage shown) from isolated cardiac mitochondria incubated with complex I supplying substrates […] and pyruvate (Gly/Pyr) are shown. ROX, Residual respiration (State 1) in the absence of reduced substrate and ADP; LEAK, Respiration compensating for proton leak in the absence of ADP but presence of reduced substrate; OXPHOS, ADP stimulated respiration of coupled mitochondria (quantification shown in FIG. 1B); OXPHOS+CytC, Oxphos after addition of cytochrome C. […]

Structures are written as SMILES.

As to `NCCCCNCCCN` [Spermidine, N-(3-Aminopropyl)-1,4-diaminobutane], the “activity of mitochondrial Complex I (respiratory competence of cardiac mitochondria through respiratory chain complex I, OXPHOS stage)” value is reported as “increases the activity of mitochondrial Complex I”. The “age-induced decline in mitochondrial respiratory function” value (aged spermidine supplemented mice vs aged control and young reference mice, cardiac mitochondria) was “reversed”. The “activity of mitochondrial Complex I (respiratory competence of cardiac mitochondria through respiratory chain complex I, OXPHOS stage)” value (listed as spermidine) is “increased”.
